{"source": "patent EP2384752A1", "about": "“Combination preparation comprising a phosphodiesterase inhibitor and a COX inhibitor for treating cancer” (Universitätsklinikum Hamburg-Eppendorf, priority 2010, dated 2011)", "key": {"[1]": {"tested_on": "Zelllinien des kleinzelligen Bronchialkarzinoms H69, SW2, OH1, OH3 und H82", "assay": "XTT cell proliferation test, single agents Indometacin or IBMX", "format": "cell-based", "from_the_text": "Vor Beginn der Versuche zur Zellproliferation wurde zunächst für jede Zelllinie eine Eichkurve erstellt, um die optimale Zellzahl pro ml für die nachfolgenden Versuchsreihen zu ermitteln. Dafür wurde das Zellproliferationskit XTT (Roche, Penzberg, Deutschland) verwendet. Hierbei wird durch ein in allen vitalen Zellen vorhandenes Enzym das gelbe Tetrazoliumsalz XTT zum orangen Salz Formazan reduziert. Somit stellt die Extinktion der jeweiligen Zellkulturprobe ein Maß für die Anzahl der vitalen Zellen dar.\nDie Zelllinien wurden in sieben verschiedenen Konzentrationen zwischen 10^4 und 10^7 Zellen pro ml in Mikrotiterplatten mit 96 Vertiefungen ausgesät. In jede Vertiefung wurde zunächst 10 µl PBS (pH 7,4) vorgelegt und dann 90 µl der Zellsuspension mit der jeweiligen Zellzahl pro ml zugegeben. Für jede Zelllinie wurden sechs parallele Ansätze hergestellt. Nach 72 Stunden Inkubation unter Standardbedingungen wurden 50 µl XTT Labeling Mixture pro Vertiefung zugegeben. Nach sechs Stunden wurde die Absorption bei 450 nm in einem Dynatech MR 3.13 Mikroelisa Reader gemessen und anhand der erzielten Werte Eichkurven erstellt. Figur 1 zeigt die Eichkurven für die Zelllinien H69, SW2, OH1, OH3 und H82OH1-Zellen. Die Zellzahlen wurden so gewählt, dass sich die Zellen bei ungehindertem Wachstum in der exponentiellen Wachstumsphase befanden. So ergab sich eine Konzentration von 160.000 Zellen pro ml für die Zelllinien OH3 und SW2, 300.000 Zellen pro ml für OH1, 500.000 Zellen pro ml für H69 und 750.000 Zellen pro ml für H82.\nDieser Versuch wurde mit allen oben genannten Zelllinien durchgeführt. Dafür wurden zunächst Lösungen der einzelnen Wirkstoffe in die Vertiefungen einer 96-Loch-Mikrotiterplatte gegeben. Die in Kulturmedium vorliegenden Zellsuspensionen wurden zugegeben, sodass sich ein Gesamtvolumen von 100 µl pro Vertiefung ergab.\nDie Zellzahl für die jeweiligen Zelllinien betrug für SW2 205.700 Zellen pro ml, für H82 964.000 Zellen pro ml, für OH1 385.700 Zellen pro ml, für OH3 205.700 Zellen pro ml und für H69 643.000 Zellen pro ml. Da zum Lösen von Indometacin 5% Ethanol und zum Lösen von IBMX 1 % Ethanol verwendet wurde, bestand die Kontrolle aus 70 µl Zellsuspension mit der jeweiligen Zellzahl pro ml, 20 µl Medium und 10 µl Alkoholkontrolle mit einer Konzentration von 6% Ethanol. Im Gesamtvolumen von 100 µl ergab sich somit eine Alkoholkonzentration von 0,6%. Der Leerwert bestand aus 100 µl Medium. Jede gewählte Kombination der Wirkstoffe in den unterschiedlichen Konzentrationen wurde pro Versuch sechsfach getestet."}, "H69 Zellen": {"tested_on": "H69 Zellen", "assay": "XTT cell proliferation test, Meloxicam, Sildenafil and their combination", "format": "cell-based", "conditions": "Meloxicam alone, compared with Indomethacin", "procedure": "Die zu untersuchenden Zelllinien wurden mit den in den Figuren angegeben Konzentrationen von Indometacin und IBMX behandelt. Die Proliferationsversuche wurden in 96-Loch-Mikrotiterplatten durchgeführt; das Gesamtvolumen pro Vertiefung betrug 100 µl. 80 µl Zellsuspension wurde pro Vertiefung verwendet. Die Zellzahl der jeweils verwendeten Suspensionen betrug für SW2 180.000 Zellen pro ml, für OH1 338.000 Zellen pro ml, für OH3 180.000 Zellen pro ml und für H69 563.000 Zellen pro ml. Da zum Lösen sowohl von Indometacin 20% Ethanol als auch von IBMX 20% Ethanol verwendet wurde, bestand die Kontrolle aus 80 µl Zellsuspension mit der jeweiligen Zellzahl pro ml und 20 µl Alkoholkontrolle mit einer Konzentration von 20% Ethanol. Im Gesamtvolumen von 100 µl ergab sich so eine Alkoholkonzentration von 4%. Eine weitere Kontrolle bestand aus 80 µl Zellsuspension mit der jeweiligen Zellzahl pro ml und 20 µl Kulturmedium, um den wachstumshemmenden Effekt vom Ethanol erkennen zu können. Der Leerwert bestand aus 100 µl Kulturmedium.\nH69 Zellen wurden wie in Beispiel 5 beschrieben mit Meloxicam und Sildefanil behandelt. […] Die Ergebnisse sind in Figur 10 dargestellt. Auch hier lässt sich eine signifikant synergistische Wirkung auf die Proliferation der H69-Zellen beobachten."}, "[2]": {"conditions": "72 h, read-out: Inhibierung auf einen Wert von % der Alkoholkontrolle"}}}
{"smiles": "COc1ccc2c(c1)c(CC(=O)O)c(C)n2C(=O)c1ccc(Cl)cc1", "note": "[Indometacin, 2-[1-(4-Chlorbenzoyl)-5-methoxy-2-methyl-1H-indol-3-yl]essigsäure]", "values": [{"measurement": "activity at 200 µM", "setting": "[1]; [2]", "value": "~60", "unit": "%"}, {"measurement": "activity at 300 µM", "setting": "[1]; [2]", "value": "~60", "unit": "%"}]}
{"smiles": "CC(C)Cn1c(=O)n(C)c(=O)c2[nH]cnc21", "note": "[IBMX, 1-Methyl-3-(2-methylpropyl)-7H-purine-2,6-dione]", "values": [{"measurement": "activity at 1500 µM", "setting": "[1]; 72 h, 1,5 mM IBMX, cell line not stated, read-out: Hemmung, % der Alkoholkontrolle", "value": 51, "unit": "%"}, {"measurement": "activity at 1250 µM", "setting": "[1]; 72 h, 1,25 mM IBMX, cell line not stated, read-out: Hemmung, % der Alkoholkontrolle", "value": 52, "unit": "%"}, {"measurement": "activity at 2000 µM", "setting": "[1]; 72 h, 2,0 mM IBMX, cell line not stated, read-out: Hemmung, % der Alkoholkontrolle", "value": 45, "unit": "%"}, {"measurement": "activity at 750 µM", "setting": "[1]; 72 h, from 0,75 mM IBMX, cell line not stated, data not shown, read-out: Hemmung, % der Alkoholkontrolle", "value": "~80", "unit": "%"}, {"measurement": "Wirkung auf die verschiedenen Zellen des kleinzelligen Bronchialkarzinoms", "setting": "[1]; single agent", "value": "antiproliferative Wirkung"}]}
{"smiles": "Cc1cnc(NC(=O)C2=C(O)c3ccccc3S(=O)(=O)N2C)s1", "note": "[Meloxicam, 4-Hydroxy-2-methyl-N-(5-methyl-2-thiazolyl)-2H-1,2-benzothiazin-3-carboxamid-1,1-dioxid]", "values": [{"measurement": "Wirkung bei H69-Zellen", "setting": "H69 Zellen", "value": "wirkt bei H69-Zellen in den gleichen Dosierungen wie Indomethacin"}]}
